One data set relates to Spodoptera littoralis. In words: Insecticidal activity against Spodoptera littoralis larvae. It is filed as functional, organism-based.
For another data set, the system named is Artemia salina. Nature of the data set: Toxicity to Artemia salina. In kind it is organism-based. The settings on record: in vivo.

Molecules are shown by their SMILES. Calls of active or inactive are those of the source. The calls are words filed in the database; no cut-off is given here.

Consider `NC(=O)c1coc(/C=C/C=C/CCCCCCC(=O)O)cc1=O` [MICROSPHAERONE B], for which, in the data set with Spodoptera littoralis, the outcome was inactive. Also, the Activity entry in the data set with Artemia salina is given as “Non-toxic”.

Consider `C[C@@H](CC(=O)NC(=O)c1coc(/C=C/C=C/CCCCCCC(=O)O)cc1=O)C(=O)O` [MICROSPHAERONE A], for which the result in the data set with Spodoptera littoralis was inactive. In addition, the Activity result with Artemia salina is given as “Non-toxic”.

The values above are taken from ChEMBL document CHEMBL1150580, “Microsphaerones A and B, two novel gamma-pyrone derivatives from the sponge-derived fungus Microsphaeropsis sp” (J Nat Prod, 2002).
